Among the data in ChEMBL document CHEMBL5291721, “A preclinical secondary pharmacology resource illuminates target-adverse drug reaction associations of marketed drugs” (Nat Commun, 2023) are AC50 values, retold here.

SMILES strings stand for the structures.

Among the targets are Mu-type opioid receptor (Homo sapiens, UniProt P35372); D(1A) dopamine receptor (Homo sapiens, UniProt P21728); Histamine H3 receptor (Homo sapiens, UniProt Q9Y5N1).
The target of the next test is T1, Thromboxane A2 receptor (Homo sapiens, UniProt P21731).
T1 sequence (P21731 whole entry): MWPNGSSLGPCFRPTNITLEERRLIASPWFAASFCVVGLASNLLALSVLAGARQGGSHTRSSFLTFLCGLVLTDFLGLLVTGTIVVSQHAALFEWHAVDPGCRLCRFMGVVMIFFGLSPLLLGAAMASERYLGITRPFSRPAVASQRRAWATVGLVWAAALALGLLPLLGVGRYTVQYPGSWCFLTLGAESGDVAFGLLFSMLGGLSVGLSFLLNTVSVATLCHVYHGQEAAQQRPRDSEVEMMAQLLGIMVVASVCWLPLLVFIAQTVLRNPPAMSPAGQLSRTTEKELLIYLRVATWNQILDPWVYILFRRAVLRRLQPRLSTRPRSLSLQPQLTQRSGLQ
The format is functional, cell-based.

Test [1] concerns the target Voltage-gated inwardly rectifying potassium channel KCNH2 (Homo sapiens, UniProt Q12809). The format is functional.
In test [2] the target is T2, 5-hydroxytryptamine receptor 1A (Homo sapiens, UniProt P08908).
T2 sequence (P08908 whole entry): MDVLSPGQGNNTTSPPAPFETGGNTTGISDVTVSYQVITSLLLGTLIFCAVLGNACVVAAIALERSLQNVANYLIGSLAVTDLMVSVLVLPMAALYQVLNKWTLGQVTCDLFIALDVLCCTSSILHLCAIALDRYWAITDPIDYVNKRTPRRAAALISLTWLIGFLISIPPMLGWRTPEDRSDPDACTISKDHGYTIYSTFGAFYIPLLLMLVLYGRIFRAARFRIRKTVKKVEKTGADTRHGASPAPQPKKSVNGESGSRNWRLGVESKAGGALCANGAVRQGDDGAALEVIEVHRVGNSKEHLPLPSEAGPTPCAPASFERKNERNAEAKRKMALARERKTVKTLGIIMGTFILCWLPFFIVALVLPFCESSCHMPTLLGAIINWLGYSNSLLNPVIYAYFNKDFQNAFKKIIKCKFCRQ

Test [3] concerns the target T3, Prostaglandin G/H synthase 1 (Homo sapiens, UniProt P23219). The test is classed as functional.
For another test, the target named is Acetylcholinesterase (Homo sapiens, UniProt P22303). The test is classed as functional.
Chain of Acetylcholinesterase (P22303 whole entry): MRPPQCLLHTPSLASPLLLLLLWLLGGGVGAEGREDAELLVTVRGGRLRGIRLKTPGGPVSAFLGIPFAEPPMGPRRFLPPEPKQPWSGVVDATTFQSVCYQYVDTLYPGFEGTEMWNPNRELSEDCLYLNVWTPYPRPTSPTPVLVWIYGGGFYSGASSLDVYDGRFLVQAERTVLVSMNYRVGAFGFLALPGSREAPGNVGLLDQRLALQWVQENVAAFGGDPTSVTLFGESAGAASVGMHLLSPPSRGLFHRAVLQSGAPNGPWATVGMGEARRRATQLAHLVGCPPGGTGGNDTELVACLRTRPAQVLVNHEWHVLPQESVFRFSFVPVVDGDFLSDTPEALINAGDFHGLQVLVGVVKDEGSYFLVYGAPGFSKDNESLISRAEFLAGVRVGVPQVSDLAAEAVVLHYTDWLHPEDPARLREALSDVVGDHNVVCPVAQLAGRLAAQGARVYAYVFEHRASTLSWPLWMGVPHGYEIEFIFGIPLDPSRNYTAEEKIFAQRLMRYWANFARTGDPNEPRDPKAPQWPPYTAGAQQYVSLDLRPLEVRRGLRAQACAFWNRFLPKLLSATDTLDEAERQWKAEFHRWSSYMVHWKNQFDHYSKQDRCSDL
In test [4] the target is 5-hydroxytryptamine receptor 2B (Homo sapiens, UniProt P41595). The format is functional, cell-based.
Chain of 5-hydroxytryptamine receptor 2B (P41595 whole entry): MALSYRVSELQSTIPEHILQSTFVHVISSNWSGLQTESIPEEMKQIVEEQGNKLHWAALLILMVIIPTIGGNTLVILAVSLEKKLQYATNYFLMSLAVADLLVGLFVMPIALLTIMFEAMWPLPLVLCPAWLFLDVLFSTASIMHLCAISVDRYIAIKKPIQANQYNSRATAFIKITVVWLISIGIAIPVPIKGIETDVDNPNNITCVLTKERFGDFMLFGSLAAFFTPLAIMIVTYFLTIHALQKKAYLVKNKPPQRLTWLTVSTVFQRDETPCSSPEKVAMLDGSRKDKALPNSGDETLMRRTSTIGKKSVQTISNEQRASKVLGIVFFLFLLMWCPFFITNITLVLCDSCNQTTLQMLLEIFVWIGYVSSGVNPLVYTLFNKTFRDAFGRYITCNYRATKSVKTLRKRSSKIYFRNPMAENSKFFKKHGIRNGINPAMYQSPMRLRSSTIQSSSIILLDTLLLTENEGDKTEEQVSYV
The target in test [5] is T4, Alpha-2A adrenergic receptor (Homo sapiens, UniProt P08913).
T4 sequence (P08913 whole entry): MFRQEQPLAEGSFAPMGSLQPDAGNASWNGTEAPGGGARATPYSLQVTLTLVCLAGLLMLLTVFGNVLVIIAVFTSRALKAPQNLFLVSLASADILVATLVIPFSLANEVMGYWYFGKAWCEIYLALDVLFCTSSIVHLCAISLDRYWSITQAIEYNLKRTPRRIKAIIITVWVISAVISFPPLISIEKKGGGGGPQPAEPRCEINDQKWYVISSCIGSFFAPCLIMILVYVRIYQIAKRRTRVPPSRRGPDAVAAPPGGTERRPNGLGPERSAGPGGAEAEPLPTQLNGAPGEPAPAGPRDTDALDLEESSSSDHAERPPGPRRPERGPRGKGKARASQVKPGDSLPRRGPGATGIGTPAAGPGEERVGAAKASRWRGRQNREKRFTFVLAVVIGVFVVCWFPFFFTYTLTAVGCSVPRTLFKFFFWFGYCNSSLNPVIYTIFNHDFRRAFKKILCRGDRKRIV

Test [6] addresses T5, Alpha-1A adrenergic receptor (Homo sapiens, UniProt P35348).
T5 sequence (P35348 whole entry): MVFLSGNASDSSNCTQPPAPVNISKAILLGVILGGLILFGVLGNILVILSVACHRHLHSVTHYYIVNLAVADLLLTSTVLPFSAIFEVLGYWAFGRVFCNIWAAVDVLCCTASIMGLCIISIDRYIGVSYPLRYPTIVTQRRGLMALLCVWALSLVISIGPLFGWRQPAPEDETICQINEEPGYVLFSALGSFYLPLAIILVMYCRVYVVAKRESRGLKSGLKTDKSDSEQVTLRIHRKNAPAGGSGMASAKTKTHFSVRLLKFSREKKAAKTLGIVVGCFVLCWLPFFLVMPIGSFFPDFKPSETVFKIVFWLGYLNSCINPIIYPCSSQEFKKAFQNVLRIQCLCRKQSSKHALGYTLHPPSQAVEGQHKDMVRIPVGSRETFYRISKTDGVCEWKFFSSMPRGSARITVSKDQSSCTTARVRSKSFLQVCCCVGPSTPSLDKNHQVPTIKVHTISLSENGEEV
The format is functional, cell-based.

For test [7], the target named is T3, Prostaglandin G/H synthase 1. The test is classed as functional. The source holds these as a separate data set.
Test [8] concerns the target cGMP-inhibited 3',5'-cyclic phosphodiesterase 3A (Homo sapiens, UniProt Q14432). The test is classed as functional.
For test [9], the target named is T6, Amine oxidase [flavin-containing] A (Homo sapiens, UniProt P21397).
T6 sequence (P21397 whole entry): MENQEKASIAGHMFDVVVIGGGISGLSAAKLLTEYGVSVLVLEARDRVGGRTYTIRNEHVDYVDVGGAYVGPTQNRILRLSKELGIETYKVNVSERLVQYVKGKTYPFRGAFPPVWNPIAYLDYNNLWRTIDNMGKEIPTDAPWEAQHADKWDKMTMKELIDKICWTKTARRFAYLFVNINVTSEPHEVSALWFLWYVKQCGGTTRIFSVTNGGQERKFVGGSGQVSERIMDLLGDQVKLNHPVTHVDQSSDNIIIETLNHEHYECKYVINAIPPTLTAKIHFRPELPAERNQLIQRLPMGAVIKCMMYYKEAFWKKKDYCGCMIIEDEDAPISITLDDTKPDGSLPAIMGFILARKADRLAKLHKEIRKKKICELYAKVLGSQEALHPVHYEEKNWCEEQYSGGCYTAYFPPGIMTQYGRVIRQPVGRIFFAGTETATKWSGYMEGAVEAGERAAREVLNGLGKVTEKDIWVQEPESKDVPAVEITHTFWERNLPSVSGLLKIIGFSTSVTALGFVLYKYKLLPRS
The test is classed as functional.

Test [10] has as its target 3',5'-cyclic-AMP phosphodiesterase 4A (Homo sapiens, UniProt P27815). The test is classed as functional.
Test [11] has as its target Sodium-dependent dopamine transporter (Homo sapiens, UniProt Q01959).
Note: assay procedure not described here.

T3 sequence (P23219 whole entry): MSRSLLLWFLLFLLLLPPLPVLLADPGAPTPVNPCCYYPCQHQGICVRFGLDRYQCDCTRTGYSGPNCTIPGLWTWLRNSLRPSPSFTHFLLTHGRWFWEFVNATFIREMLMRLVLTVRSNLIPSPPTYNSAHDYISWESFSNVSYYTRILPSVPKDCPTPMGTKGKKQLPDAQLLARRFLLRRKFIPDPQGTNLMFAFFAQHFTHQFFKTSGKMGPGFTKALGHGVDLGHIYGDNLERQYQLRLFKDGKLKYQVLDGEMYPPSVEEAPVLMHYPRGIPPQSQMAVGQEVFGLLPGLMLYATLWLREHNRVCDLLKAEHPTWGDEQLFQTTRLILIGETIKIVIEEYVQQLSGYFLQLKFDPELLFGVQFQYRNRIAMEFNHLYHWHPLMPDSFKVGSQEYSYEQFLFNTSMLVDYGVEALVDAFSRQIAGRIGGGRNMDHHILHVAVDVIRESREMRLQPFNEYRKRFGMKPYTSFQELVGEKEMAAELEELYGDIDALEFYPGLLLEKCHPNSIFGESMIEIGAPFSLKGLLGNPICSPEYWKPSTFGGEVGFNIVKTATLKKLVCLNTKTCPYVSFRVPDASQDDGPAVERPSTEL
Chain of Sodium-dependent dopamine transporter (Q01959 whole entry): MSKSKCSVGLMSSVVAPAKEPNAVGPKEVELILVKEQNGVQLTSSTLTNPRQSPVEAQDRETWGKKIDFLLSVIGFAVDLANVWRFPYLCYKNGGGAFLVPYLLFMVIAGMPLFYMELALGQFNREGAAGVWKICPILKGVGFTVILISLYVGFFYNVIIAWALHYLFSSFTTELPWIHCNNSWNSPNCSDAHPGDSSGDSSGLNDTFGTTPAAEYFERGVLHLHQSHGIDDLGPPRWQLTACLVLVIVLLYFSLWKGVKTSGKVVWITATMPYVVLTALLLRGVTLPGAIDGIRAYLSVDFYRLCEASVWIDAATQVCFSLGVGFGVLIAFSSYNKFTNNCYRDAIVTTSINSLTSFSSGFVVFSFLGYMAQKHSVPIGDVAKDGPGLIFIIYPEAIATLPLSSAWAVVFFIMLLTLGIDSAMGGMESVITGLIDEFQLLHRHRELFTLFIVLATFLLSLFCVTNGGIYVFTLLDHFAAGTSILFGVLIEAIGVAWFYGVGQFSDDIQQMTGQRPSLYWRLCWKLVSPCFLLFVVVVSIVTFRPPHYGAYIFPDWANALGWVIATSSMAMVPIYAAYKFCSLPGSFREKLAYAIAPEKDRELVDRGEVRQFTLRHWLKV
Chain of 3',5'-cyclic-AMP phosphodiesterase 4A (P27815 whole entry): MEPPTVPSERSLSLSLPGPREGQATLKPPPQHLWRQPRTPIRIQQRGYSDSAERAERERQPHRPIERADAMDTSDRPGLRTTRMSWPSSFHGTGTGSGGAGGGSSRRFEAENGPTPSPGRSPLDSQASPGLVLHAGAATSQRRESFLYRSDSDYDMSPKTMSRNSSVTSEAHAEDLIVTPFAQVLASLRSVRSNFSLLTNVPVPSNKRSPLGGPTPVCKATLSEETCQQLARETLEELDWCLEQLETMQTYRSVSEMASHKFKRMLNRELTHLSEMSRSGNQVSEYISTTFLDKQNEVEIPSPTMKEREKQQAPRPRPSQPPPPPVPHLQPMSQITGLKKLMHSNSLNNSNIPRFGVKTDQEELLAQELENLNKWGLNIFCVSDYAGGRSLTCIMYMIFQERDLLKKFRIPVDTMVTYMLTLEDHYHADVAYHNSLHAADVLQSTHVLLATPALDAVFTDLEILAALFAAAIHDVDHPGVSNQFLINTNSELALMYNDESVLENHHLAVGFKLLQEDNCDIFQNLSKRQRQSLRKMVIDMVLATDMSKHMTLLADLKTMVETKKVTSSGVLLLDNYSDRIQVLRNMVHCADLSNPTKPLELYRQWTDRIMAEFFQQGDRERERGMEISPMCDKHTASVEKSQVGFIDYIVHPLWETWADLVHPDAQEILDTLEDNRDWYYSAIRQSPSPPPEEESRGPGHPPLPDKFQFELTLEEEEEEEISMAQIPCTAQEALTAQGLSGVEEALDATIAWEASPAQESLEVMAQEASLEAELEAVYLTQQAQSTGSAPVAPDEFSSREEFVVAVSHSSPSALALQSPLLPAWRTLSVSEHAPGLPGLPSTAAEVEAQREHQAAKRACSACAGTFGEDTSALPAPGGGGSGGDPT
Chain of cGMP-inhibited 3',5'-cyclic phosphodiesterase 3A (Q14432 whole entry): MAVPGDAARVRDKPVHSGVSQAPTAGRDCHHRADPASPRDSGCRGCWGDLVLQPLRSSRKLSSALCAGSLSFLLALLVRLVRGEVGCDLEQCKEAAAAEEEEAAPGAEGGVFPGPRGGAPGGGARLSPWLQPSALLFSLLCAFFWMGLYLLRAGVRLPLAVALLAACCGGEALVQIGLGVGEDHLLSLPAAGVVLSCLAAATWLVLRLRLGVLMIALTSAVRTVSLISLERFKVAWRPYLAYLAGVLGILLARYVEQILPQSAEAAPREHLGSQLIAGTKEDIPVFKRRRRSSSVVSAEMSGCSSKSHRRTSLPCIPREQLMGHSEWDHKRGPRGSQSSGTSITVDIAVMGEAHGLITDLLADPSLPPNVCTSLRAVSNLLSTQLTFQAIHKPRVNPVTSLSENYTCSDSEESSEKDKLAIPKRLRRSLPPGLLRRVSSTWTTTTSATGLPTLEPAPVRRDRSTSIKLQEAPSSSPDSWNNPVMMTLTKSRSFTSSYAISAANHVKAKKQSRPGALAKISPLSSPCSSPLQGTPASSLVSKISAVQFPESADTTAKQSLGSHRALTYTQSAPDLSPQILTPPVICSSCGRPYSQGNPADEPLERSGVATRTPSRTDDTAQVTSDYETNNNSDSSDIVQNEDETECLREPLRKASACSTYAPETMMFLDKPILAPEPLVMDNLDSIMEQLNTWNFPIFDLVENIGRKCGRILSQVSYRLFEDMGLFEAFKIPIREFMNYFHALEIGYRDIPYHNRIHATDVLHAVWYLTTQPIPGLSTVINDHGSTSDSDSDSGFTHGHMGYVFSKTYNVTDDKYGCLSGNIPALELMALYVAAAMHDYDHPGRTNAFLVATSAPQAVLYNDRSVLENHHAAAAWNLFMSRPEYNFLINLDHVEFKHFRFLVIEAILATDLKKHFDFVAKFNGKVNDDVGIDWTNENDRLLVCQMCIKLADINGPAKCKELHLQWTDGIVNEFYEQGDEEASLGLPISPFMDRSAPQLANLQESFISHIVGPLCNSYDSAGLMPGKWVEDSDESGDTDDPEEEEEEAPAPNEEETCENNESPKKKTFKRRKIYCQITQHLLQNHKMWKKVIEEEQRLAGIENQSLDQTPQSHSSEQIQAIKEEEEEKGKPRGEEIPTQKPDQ
Chain of Histamine H3 receptor (Q9Y5N1 whole entry): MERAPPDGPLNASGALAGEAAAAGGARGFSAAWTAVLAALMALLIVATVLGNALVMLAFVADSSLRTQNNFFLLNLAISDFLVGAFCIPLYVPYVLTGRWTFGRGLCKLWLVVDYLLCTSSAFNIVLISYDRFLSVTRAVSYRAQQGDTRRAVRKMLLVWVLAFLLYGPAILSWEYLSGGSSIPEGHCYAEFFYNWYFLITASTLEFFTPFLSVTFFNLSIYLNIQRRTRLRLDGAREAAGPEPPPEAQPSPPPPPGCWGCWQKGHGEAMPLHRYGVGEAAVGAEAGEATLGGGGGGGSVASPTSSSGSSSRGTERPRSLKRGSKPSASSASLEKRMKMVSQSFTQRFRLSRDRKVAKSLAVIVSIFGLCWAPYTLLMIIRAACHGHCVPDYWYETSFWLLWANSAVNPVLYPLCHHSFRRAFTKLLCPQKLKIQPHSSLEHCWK

Regarding `CCCc1nc2c(C)cc(-c3nc4ccccc4n3C)cc2n1Cc1ccc(-c2ccccc2C(=O)O)cc1`, the AC50 on Thromboxane A2 receptor was 14.5 µM; on Mu-type opioid receptor, 2.56 µM; in [1] it was > 30 µM; in test [2] it was > 30 µM; in test [3], > 30 µM; at Acetylcholinesterase, > 30 µM. Moreover, the AC50 in test [4] was > 30 µM; on D(1A) dopamine receptor it was > 30 µM; in test [5], > 30 µM; in test [6], 9.55 µM; in [7], > 30 µM; in test [8] it was 29.9 µM. In addition, the half-maximal activity concentration (AC50) in test [9] was > 30 µM; on Histamine H3 receptor, > 30 µM; in test [10] it was 13.5 µM; in test [11] it was > 30 µM.

Consider `CC[C@@H]1C[C@]1(NC(=O)[C@@H]1C[C@@H]2CN1C(=O)[C@H](C(C)(C)C)NC(=O)OCC(C)(C)CCCCc1cccc3c1CN(C3)C(=O)O2)C(=O)NS(=O)(=O)C1CC1`, for which the half-maximal activity concentration (AC50) was 29.5 µM on Thromboxane A2 receptor; > 30 µM at Mu-type opioid receptor; > 30 µM in [1]; > 30 µM in [2]; > 30 µM in [3]; > 30 µM at Acetylcholinesterase. Also, the half-maximal activity concentration (AC50) is > 30 µM in [4]; > 30 µM at D(1A) dopamine receptor; > 30 µM in test [5]; 29.7 µM in test [6]; 26.8 µM in test [7]; > 30 µM in test [8]. In addition, the AC50 (in test [9]; at Histamine H3 receptor; in test [10]; in test [11]) was > 30 µM throughout.

Consider `CC(=O)NO` [ACETOHYDROXAMIC ACID], for which the AC50 (on Thromboxane A2 receptor; on Mu-type opioid receptor; in [2]; in test [3]; at Acetylcholinesterase; in test [4]) was > 30 µM each time. The AC50 at D(1A) dopamine receptor was > 30 µM; in test [5], > 30 µM; in test [6], > 30 µM; in test [7] it was 21.5 µM; in [8], > 30 µM; in test [9] it was > 30 µM. For the same compound, the AC50 (on Histamine H3 receptor; in test [10]; in test [11]) was > 30 µM throughout.

On to `O=C(O)c1ccccc1` [BENZOIC ACID], for which the AC50 (at Thromboxane A2 receptor; on Mu-type opioid receptor; in test [2]; in test [3]; at Acetylcholinesterase; in [4]) was > 30 µM throughout. Moreover, the AC50 (at D(1A) dopamine receptor; in [5]; in test [6]; in test [7]; in test [8]; in [9]) was > 30 µM throughout. The AC50 (on Histamine H3 receptor; in test [10]; in [11]) was > 30 µM in each case.

Regarding `CCCCc1oc2ccc(NS(C)(=O)=O)cc2c1C(=O)c1ccc(OCCCN(CCCC)CCCC)cc1` [DRONEDARONE], the AC50 was > 30 µM on Thromboxane A2 receptor; 3.09 µM on Mu-type opioid receptor; 1.72 µM in test [2]; > 30 µM in [3]; > 30 µM on Acetylcholinesterase; > 30 µM in [4]. Also, the AC50 on D(1A) dopamine receptor was 5.4 µM; in [5], 13.4 µM; in test [6] it was > 30 µM; in test [7] it was > 30 µM; in test [8], > 30 µM; in [9] it was > 30 µM. In addition, the concentration at half-maximal activity (AC50) on Histamine H3 receptor stood at 28.4 µM; in test [10] it was 16.8 µM; in test [11], 1.73 µM.

For `CC(C)C(=O)Oc1ccc(CO)cc1[C@H](CCN(C(C)C)C(C)C)c1ccccc1` [FESOTERODINE], the AC50 (at Thromboxane A2 receptor; at Mu-type opioid receptor; in test [2]; in test [3]; on Acetylcholinesterase; in [4]) was > 30 µM in each case. The AC50 (at D(1A) dopamine receptor; in test [5]; in test [6]; in [7]; in test [8]; in [9]) was > 30 µM in each case. Further, the AC50 (at Histamine H3 receptor; in test [10]; in [11]) was > 30 µM each time.

Take `C[N+](C)(CCCCCC[N+](C)(C)C1c2ccccc2-c2ccccc21)C1c2ccccc2-c2ccccc21` [HEXAFLUORENIUM]: the AC50 on Thromboxane A2 receptor is > 30 µM; at Mu-type opioid receptor, 1.03 µM; in test [2], 0.868 µM; in [3] it was > 30 µM; on Acetylcholinesterase it was 0.171 µM; in [4] it was > 30 µM. Besides, the AC50 on D(1A) dopamine receptor is 19.3 µM; in test [5], 2.19 µM; in test [6], > 30 µM; in test [7], > 30 µM; in [8], > 30 µM; in test [9], > 30 µM. Moreover, the figures for the AC50 (at Histamine H3 receptor; in test [10]; in [11]) were 2.72 µM, > 30 µM and 4.5 µM, respectively.

With `C[N+](C)(C)CCOC(=O)CCC(=O)OCC[N+](C)(C)C` [SUXAMETHONIUM], the AC50 (on Thromboxane A2 receptor; at Mu-type opioid receptor; in [2]; in test [3]; at Acetylcholinesterase; in test [4]) was > 30 µM in each case. Besides, the AC50 is > 30 µM on D(1A) dopamine receptor; 16.6 µM in [5]; 0.667 µM in [6]; > 30 µM in test [7]; > 30 µM in [8]; > 30 µM in test [9]. The AC50 (on Histamine H3 receptor; in test [10]; in test [11]) was > 30 µM each time.

What is called AC50 is the midpoint of the concentration-response curve, whichever way the signal moves. Read a low AC50 as greater potency.
